The results in this text go back to patent US11135246B2, “Peptides and combination of peptides for use in immunotherapy against leukemias and other cancers” (Immatics Biotechnologies GmbH, priority 2017, dated 2021).

For the assay, the system named is CD8+ T cells. As to the kind of experiment: In vitro T-cell priming assay (immunogenicity): repeated stimulation of CD8+ T cells with aAPCs loaded with peptide/MHC complexes and anti-CD28, pMHC multimer readout. The format is cell-based, human. Conditions: Table 10a; healthy donors; three stimulation cycles; HLA-A*02 (278), HLA-A*24 (279). The procedure: In order to obtain information regarding the immunogenicity of the TUMAPs of the present invention, the inventors performed investigations using an in vitro T-cell priming assay based on repeated stimulations of CD8+ T cells with artificial antigen presenting cells (aAPCs) loaded with peptide/MHC complexes and anti-CD28 antibody. […]
Generation of pMHC/anti-CD28 coated beads, T-cell stimulations and readout was performed in a highly defined in vitro system using four different pMHC molecules per stimulation condition and 8 different pMHC molecules per readout condition. […]
Stimulations were initiated in 96-well plates by co-incubating […] CD8+ T cells with 2×10^5 washed coated beads in 200 μl TCM supplemented with 5 ng/ml IL-12 (PromoCell) for 3 days at 37° C. […] For the pMHC multimer readout using 8 different pMHC molecules per condition, a two-dimensional combinatorial coding approach was used as previously described (Andersen et al., 2012) with minor modifications encompassing coupling to 5 different fluorochromes. […] Peptide specific cells were calculated as percentage of total CD8+ cells. […] In vitro priming of specific multimer+CD8+ lymphocytes was detected by comparing to negative control stimulations.

For “279 (LYIDRPLPYL; listed as Homo sapiens) [compound 279]”, the “Wells positive [%]” value is reported as “++++ (>=70% = ++++)”. “278 (YLDRKLLTL; listed as Homo sapiens) [compound 278]”: the “Wells positive [%]” value is “++++ (>=70% = ++++)”.
